Columns and labels:
[1] = Solubility in organic solvents; type: physicochemical; conditions: in CH2C12, CHCl3, Essigsäureethylester, Aceton, Ethanol und Isopropanol; isolated as amorphous solid
Excerpt: Die Pseurotine A und D wurden als amorpher Feststoff isoliert und sind z.B. löslich in CH2C12, CHCl3, Essigsäureethylester, Aceton, Ethanol und Isopropanol.

[2] = Stability in the solid state and in solution; type: physicochemical; conditions: for Stabilität im festen Zustand: solid state; for Stabilität in Lösungen: solutions, pH range between 3 and 8, in particular 5 and 7
Excerpt: Die Verbindungen der Formel 1 oder 11 ist im festen Zustand und in Lösungen im pH-Bereich zwischen 3 und 8, insbesondere 5 und 7, stabil und läßt sich damit in übliche galenische Zubereitungen einarbeiten.

[3] = tested on: durch Apomorphin verursachten Kletterns; test: Inhibition of apomorphine-induced climbing in mice (apomorphine antagonism); type: in vivo, Mäusen; conditions: test substance given 30 min (i.p.) or 60 min (p.o.) before apomorphine, dose of test substance not given
Description: Test auf biologische Aktivität von Pseurotin A und D: • Die Wirkung der Verbindungen der Formel I und 11 als Apomorphin Antagonisten wird an Mäusen getestet. Hierzu wird zunächst Apomorphin als 1 %ige Lösung (Verdünnungsmittel: Tylose, z. B. Methocel, Hoechst AG, Frankfurt, Deutschland)) einmalig […] injiziert. Die Dosis ist so gewählt, daß sie bei 95 % der Mäuse für ca. 30 Minuten eine anhaltende Klettertätigkeit auslöst (1,5 mg Apomorphin/kg Maus; subcutane Injektion). Tiere, die noch vor der Apomorphingabe eine konstante Klettertätigkeit aufweisen, werden nicht im Test berücksichtigt. Pseurotin A und/oder D wird 30 bzw. 60 Min. vor Apomorphin appliziert (i.p. bzw. p.o.). Es wird viermal abgelesen: unmittelbar vor sowie 10,20 und 30 Min. nach Apomorphin-Injektion. Dabei wird das Kletterverhalten pro Maus beurteilt: • Testkriterium ist, ob eine Hemmung des durch Apomorphin verursachten Kletterns eintritt.

[4] = 10 min after apomorphine (1,5 mg Apomorphin/kg Maus), seen in the majority (Mehrzahl) of treated mice
[5] = 20 min after apomorphine (1,5 mg Apomorphin/kg Maus)

CC/C=C\[C@H](O)[C@H](O)C1=C(C)C(=O)[C@]2(O1)C(=O)N[C@@](OC)(C(=O)c1ccccc1)[C@@H]2O [Pseurotin A]
Löslichkeit [1]: löslich | Stabilität im festen Zustand [2]: stabil | Stabilität in Lösungen [2]: stabil | Kletterverhalten pro Maus (Hemmung des durch Apomorphin verursachten Kletterns) [3, 4]: nur noch 1 oder 2 Pfoten an der Wand | Kletterverhalten pro Maus (Hemmung des durch Apomorphin verursachten Kletterns) [3, 5]: nahezu alle Tiere deutliche Symptome in Form der Kletterhemmung (4 Pfoten am Boden)

CCC(O)C=C[C@H](O)C1=C(C)C(=O)[C@]2(O1)C(=O)N[C@@](OC)(C(=O)c1ccccc1)[C@@H]2O (stereo partly shown) [Pseurotin D]
Löslichkeit [1]: löslich | Stabilität im festen Zustand [2]: stabil | Stabilität in Lösungen [2]: stabil | Kletterverhalten pro Maus (Hemmung des durch Apomorphin verursachten Kletterns) [3, 4]: nur noch 1 oder 2 Pfoten an der Wand | Kletterverhalten pro Maus (Hemmung des durch Apomorphin verursachten Kletterns) [3, 5]: nahezu alle Tiere deutliche Symptome in Form der Kletterhemmung (4 Pfoten am Boden)

Reference: patent EP0546475A1, “Biologically active pseurotin A and D, new metabolites from Aspergillus fumigatus, process for their preparation and their use as apomorphine antagonists” (HOECHST AKTIENGESELLSCHAFT, priority 1991, dated 1993)
